Results published in US4666929A, “Anthranilic acid ester derivatives and antiinflammatory and analgetic external preparations containing the same” (Shiseido Company Ltd., priority 1985, dated 1987).

Key:
[1] = test system: pain induced by the brewer's yeast; test: Evaluation Test Example 7 (Analgetic Activity), Randall-Selitto method; assay type: in vivo, rat; conditions: topical, 2.5 mg/paw, 5 hours after injection of brewer's yeast
Protocol: This method is admitted as a standard method for evaluating non-anesthetic analgesic agent.
The test sample compounds were applied to the both foot pad of hind paws of the rats each in an application amount of 50 μl as a 2.5% ethanol solution. After one hour, 50 μl each of the ethanol solution of the sample compound was again applied and 0.1 ml of a 5% brewer's yeast/physiological saline was immediately subcutaneously applied to one foot pad of the rat as a pain inducing substance. After a predetermined time period, the weight of the pain generation was measured using a horizontal balance type presser and the decrease rate (P1) of the pain threshold value was determined. The above-mentioned evaluation test procedure was also carried out in the control rat group, except that the solvent containing no sample compounds was applied. Thus, the decrease rate (P0) of the pain threshold value in the control group was determined. The inhibition (%) of the pain induced by the brewer's yeast was calculated as follows: [formula] When this value is large, the analgetic activity is high.

[2] = in vivo; conditions: mouse, in vivo; oral, ICR female mice
Protocol: (§1) The evaluation test was carried out using ICR female mice (i.e., body weight=18 to 22 g, 10 mice in each group).
(§2) The sample compounds listed in Table 3 were dispersed in 2.0% carboxymethyl cellulose/physiological saline solution and orally administered in a given amount by a peroral syringe. After the administration, the toxic conditions were observed and the oral acute toxicity (LD50) was calculated from the death number according to a Van Der Werden method.

[3] = test system: ICR female mice; test: in vivo
Protocol: as §1, §2

[4] = test system: carrageenan foot pad edema; test: Evaluation Test Example 4 (Antiinflammatory Activity), rat/carrageenan foot pad edema method; assay type: in vivo; conditions: oral, 100 mg/kg; for Prevention % (carrageenan edema): 5 hours after λ-carrageenan injection
Protocol: (§3) The antiinflammatory effects of the present compounds were determined according to the so-called rat/carrageenan foot pad edema method. This method is admitted as a standard test method for determining antiinflammatory effects, because this method has a high correlationship with human antiinflammatory effects.
(§4) The evaluation test was carried out using Wister male rats (i.e., body weight =110-130 g, 8 rats in each group) according to a Winter et al method set forth in "Proceedings of the Society for Experimental Biology & Medicine, 111, p 554, 1962).
(§5) The sample compounds listed in Table 4 were dispersed in a 0.5% aqueous carboxymethyl cellulose solution and orally administered in a dosage of 100 mg/kg. One hour after the administration, 0.1 ml of a 1% λ-carrageenan/physiological saline was subcutaneously applied to the foot pad of one paw of the rat as an inflammatory inducing substance. Thus, the edema was caused. The volumes of the foot pad were measured in the predetermined constant time period before and after the administration and the increase (V1) in the volume was calculated. On the other hand, the increase (V0) in the volume of the foot pad of the control rats, to which the aqueous 0.5% carboxymethyl cellulose solution containing no test sample compounds, was determined by injecting the λ-carageenan. Thus, the inhibition (%) of the carageenan edema was calculated as follows: [formula] The antiinflammatory activity is high when this value is large.
The evaluation test of 2-furanmethyl-N-(2,3-xylyl) anthranilate was carried out in the same manner as in Evaluation Test Example 3.

[5] = test system: UV induced erythema; test: Evaluation Test Example 6 (Antiinflammatory Activity), ultraviolet erythema method; assay type: in vivo, guinea pig; conditions: topical; for Prevention % (UV induced erythema): 25 μg/cm^2, 3 hours after UV irradiation
Protocol: (§6) Healthy Hartley strain albino guinea pigs (i.e., body weight=450-500 g, 10 pigs in each group) were used as the test animals. The back skin of the guinea pigs was clipped and shaved, and sections having a size of 1.41 cm×1.41 cm were prepared in the back skin, by using a rubber plate, symmetrically spaced from the back center line. The divided sections were irradiated with ultraviolet ray having a medium wavelength (i.e., 280-320 nm, λmax =305 nm) to induce erythema. After the UV irradiation, 10 μl of a solution of the test sample compound in olive oil was applied to the sections on one side. The formation of the erythema was observed over a period of time. The average erythema (E1) in the section to which the sample compound was applied and the average erythema (E0) in the section to which no sample compounds were applied were measured. […] [formula] When the inhibitory value (%) is large, the antiinflammatory activity of the sample compound is high.
The anti-inflammatory activity test of 2-furanmethyl-N-(2,3-xylyl)anthranilate was carried out in the same manner as in Evaluation Test Example 5.

[6] = test system: carrageenan foot pad edema; test: Evaluation Test Example 3 (Antiinflammatory Activity), rat/carrageenan foot pad edema method; assay type: in vivo; conditions: oral, 100 mg/kg, 5 hours after λ-carrageenan injection
Protocol: as §3, §4, §5

[7] = test system: UV induced erythema; test: Evaluation Test Example 5 (Antiinflammatory Activity), ultraviolet erythema method; assay type: in vivo, guinea pig; conditions: topical, 25 μg/cm^2, 3 hours after UV irradiation
Protocol: The evaluation test of N-(2,3-xylyl) anthranilic acid derivatives was carried out according to the so-called ultraviolet erythema method.
as §6

[8] = background art; cited from earlier work
[9] = oral administration, background art; cited from earlier work
[10] = in vivo; conditions: mouse, oral, ddY male mice, 7 days of observation
Protocol: The evaluation test was carried out using ddY male mice (i.e., body weight =18 to 22 g, 10 mice in each group).
as §2, with “compound” for “compounds”, “2 was” for “3 were”, “0.5%” for “2.0%”, “number during 7 days of observation” for “number”, “Litchfield Wilcoxon” for “Van Der Werden”

Cc1cccc(Nc2ccccc2C(=O)OCCc2ccccn2)c1C [2-(2-pyridyl)ethyl-N-(2,3-xylyl)anthranilate]
Inhibition % (pain induced by brewer's yeast) [1]: 45.5%

CC(C)Cc1ccc(C(C)C(=O)OCc2ccccn2)cc1 (centres unmarked) [2-(p-isobutylphenyl)propionic acid-2-pyridylmethyl ester, reference compound]
Inhibition % (pain induced by brewer's yeast) [1]: 39.2%

Cc1cccc(Nc2ccccc2C(=O)OCc2ccco2)c1C [2-furanmethyl-N-(2,3-xylyl)anthranilate]
LD50 [2]: 5480 mg/kg
LD50 relative to known N-(2,3-xylyl)anthranilic acid ([3]; oral): about 4 times higher
toxicity ([3]; oral acute toxicity, in words): very low
Prevention % (carrageenan edema) [4]: 50.7%
edema inhibitory activity versus N-(2,3-xylyl)anthranilic acid ([4]; in words): as strong as for the known N-(2,3-xylyl)anthranilic acid
Prevention % (UV induced erythema) [5]: 54.3%
erythema [inhibition] versus N-(2,3-xylyl)anthranilic acid ([5]; 25 μg/cm^2, in words): stronger than that of the known N-(2,3-xylyl)anthranilic acid
Inhibition % (pain induced by brewer's yeast) [1]: 56.5%

Cc1cccc(Nc2ccccc2C(=O)OCc2ccccn2)c1C [2-pyridylmethyl-N-(2,3-xylyl)anthranilate]
Inhibition % (pain induced by brewer's yeast) [1]: 53.6%

Cc1cccc(Nc2ccccc2C(=O)OCc2cccnc2)c1C [3-pyridylmethyl-N-(2,3-xylyl)anthranilate]
Inhibition % (pain induced by brewer's yeast) [1]: 48.3%

Cc1cccc(Nc2ccccc2C(=O)O)c1C [N-(2,3-xylyl)anthranilic acid, reference compound]
Inhibition % (carrageenan edema) [6]: 56.8%
Prevention % (carrageenan edema) [4]: 46.8%
Inhibition % (UV induced erythema) [7]: 32.8%
Prevention % (UV induced erythema) [5]: 35.4%
Inhibition % (pain induced by brewer's yeast) [1]: 32.8%
solubility in water, an alcohol, or an oil [8]: very difficult to dissolve
side effects [9]: various side effects including enterogasteric disorders, renal disorders, and vertigo occur

Cc1cccc(Nc2ccccc2C(=O)OCc2ccccn2)c1C [drawing 4]
LD50 at 168 h [10]: 4420 mg/kg

Cc1cccc(Nc2ccccc2C(=O)OCc2cccnc2)c1C [drawing 5]
LD50 at 168 h [10]: 3820 mg/kg

Cc1cccc(Nc2ccccc2C(=O)OCc2ccncc2)c1C [drawing 6]
LD50 at 168 h [10]: 4850 mg/kg

Cc1cccc(Nc2ccccc2C(=O)OCCc2ccccn2)c1C [drawing 7]
LD50 at 168 h [10]: 4100 mg/kg

Cc1cccc(Nc2ccccc2C(=O)OCCCc2cccnc2)c1C [drawing 8]
LD50 at 168 h [10]: 3750 mg/kg

Cc1cccc(Nc2ccccc2C(=O)OCc2ccccn2)c1C [drawing 9]
Inhibition % (carrageenan edema) [6]: 61.3%

Cc1cccc(Nc2ccccc2C(=O)OCc2cccnc2)c1C [drawing 10]
Inhibition % (carrageenan edema) [6]: 55.2%

Cc1cccc(Nc2ccccc2C(=O)OCc2ccncc2)c1C [drawing 11]
Inhibition % (carrageenan edema) [6]: 53.5%

Cc1cccc(Nc2ccccc2C(=O)OCc2ccccn2)c1C [drawing 12]
Inhibition % (UV induced erythema) [7]: 47.6%

Cc1cccc(Nc2ccccc2C(=O)OCc2cccnc2)c1C [drawing 13]
Inhibition % (UV induced erythema) [7]: 51.3%

Cc1cccc(Nc2ccccc2C(=O)OCc2ccncc2)c1C [drawing 14]
Inhibition % (UV induced erythema) [7]: 43.1%

Cc1cccc(Nc2ccccc2C(=O)OCCc2ccccn2)c1C [drawing 15]
Inhibition % (UV induced erythema) [7]: 35.4%

Cc1cccc(Nc2ccccc2C(=O)OCCCc2cccnc2)c1C [drawing 16]
Inhibition % (UV induced erythema) [7]: 33.2%
